# Test results taken from US10188634B2, “3-(3H-imidazo[4,5-C]pyridin-2-yl)-1 H-pyrazolo[4,3-B]pyridines and therapeutic uses thereof” (Samumed, LLC, priority 2015, dated 2019).
# Tests used:
# Type in all cases: cell-based
# SW480 colon cancer cells = assay: Cell viability assay (CellTiter-Blue) in SW480 colon cancer cells; conditions: Homo sapiens, 96 h; for EC50: four days incubation, CellTiter-Blue cell viability; for inhibition at 10 µM: four days, CellTiter-Blue, read-out: percent inhibition at 10 μM (given for EC50 of >10 μM)
# How it was run: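 Four-day exposure of SW480 cells (~2×10^3/well) to compound from 10 μM down to 0.004 μM in 1:3 steps, in duplicate. Resorufin fluorescence from CellTiter-Blue after ~3 h served as the viability read-out. EC50 values came from nonlinear curve fits, with % inhibition at 10 μM given where EC50 >10 μM.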
# [1] = tested on: LL29 cells (primary human fibroblasts derived from IPF patients) treated with TGF-β1, α-smooth muscle actin; assay: Inhibition of the fibrotic process: αSMA staining in TGF-β1 treated primary human fibroblasts from IPF patients (LL29 cells); conditions: Fibroblast, 96 h; for EC50: LL29 cells treated with TGF-β1 (20 ng/mL), 4 days; for inhibition at 10 µM: LL29 cells treated with TGF-β1, 4 days, read-out: percent inhibition in brackets (given for EC50 >10 μM)
# IL-6 in THP-1 cells = assay: Inhibition of IL-6 in LPS-stimulated THP-1 human monocyte cells (HTRF); conditions: IL-6 HTRF; for EC50: 500 ng/mL LPS, 22 hours; for inhibition at 10 µM: LPS, read-out: percent inhibition in brackets (given for EC50 >10 μM)
# How it was run: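 IL-6 was quantified by HTRF ratio after LPS (500 ng/mL, 22 h) stimulation of THP-1 monocytes pretreated 2 h with compound, 10-point 1:3 dilutions from 10 μM, 0.1% DMSO. Cells were held in 1% FBS for 24 h beforehand. Values normalised to DMSO; four-parameter EC50, or % inhibition at 10 μM above that.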
SMILES,EC50 (SW480 colon cancer cells) [µM],EC50 [1] [µM],inhibition at 10 µM [1] [%],EC50 (IL-6 in THP-1 cells) [µM],inhibition at 10 µM (IL-6 in THP-1 cells) [%],inhibition at 10 µM (SW480 colon cancer cells) [%]
"Cc1ncc(-c2ccc3[nH]nc(-c4nc5c(-c6cccc(F)c6)cncc5[nH]4)c3n2)n1C [Compound 481, 5-(1,2-Dimethyl-1H-imidazol-5-yl)-3-(7-(3-fluorophenyl)-3H-imidazo[4,5-c]pyridin-2-yl)-1H-pyrazolo[4,3-b]pyridine]",2.3,> 10,4.5,> 10,48.3,–
"NC1CN(c2cncc(-c3ccc4[nH]nc(-c5nc6c(-c7cccc(F)c7)cncc6[nH]5)c4n3)n2)C1 [Compound 482, 1-(6-(3-(7-(3-Fluorophenyl)-3H-imidazo[4,5-c]pyridin-2-yl)-1H-pyrazolo[4,3-b]pyridin-5-yl)pyrazin-2-yl)azetidin-3-amine]",> 10,> 10,16.7,> 10,40.8,3.8
"Fc1cccc(-c2cncc3[nH]c(-c4n[nH]c5ccc(-c6cncc(OC7CCNCC7)c6)nc45)nc23)c1 [Compound 484, 3-(7-(3-Fluorophenyl)-3H-imidazo[4,5-c]pyridin-2-yl)-5-(5-(piperidin-4-yloxy)pyridin-3-yl)-1H-pyrazolo[4,3-b]pyridine]",> 10,1.42,–,> 10,11.3,11.7
"Oc1cncc(-c2ccc3[nH]nc(-c4nc5c(-c6cccc(F)c6)cncc5[nH]4)c3n2)c1 [Compound 489, 5-(3-(7-(3-Fluorophenyl)-3H-imidazo[4,5-c]pyridin-2-yl)-1H-pyrazolo[4,3-b]pyridin-5-yl)pyridin-3-ol]",> 10,2.31,–,> 10,43.3,3.7
"Fc1cccc(-c2cncc3[nH]c(-c4n[nH]c5ccc(-c6cnccn6)nc45)nc23)c1 [Compound 492, 3-(7-(3-Fluorophenyl)-3H-imidazo[4,5-c]pyridin-2-yl)-5-(pyrazin-2-yl)-1H-pyrazolo[4,3-b]pyridine]",> 10,> 10,0,> 10,24.5,7.5
"c1cncc(-c2cncc3[nH]c(-c4n[nH]c5ccc(-c6cncc(OC7CCCCC7)c6)nc45)nc23)c1 [Compound 531, 5-(5-(Cyclohexyloxy)pyridin-3-yl)-3-(7-(pyridin-3-yl)-3H-imidazo[4,5-c]pyridin-2-yl)-1H-pyrazolo[4,3-b]pyridine]",> 10,3.2,–,0.371,–,15.5
"Oc1cncc(-c2ccc3[nH]nc(-c4nc5c(-c6cccnc6)cncc5[nH]4)c3n2)c1 [Compound 537, 5-(3-(7-(Pyridin-3-yl)-3H-imidazo[4,5-c]pyridin-2-yl)-1H-pyrazolo[4,3-b]pyridin-5-yl)pyridin-3-ol]",> 10,> 10,49.8,0.414,–,7.6
"c1cc(-c2cncc3[nH]c(-c4n[nH]c5ccc(-c6cncc(OC7CCNCC7)c6)nc45)nc23)ccn1 [Compound 548, 5-(5-(Piperidin-4-yloxy)pyridin-3-yl)-3-(7-(pyridin-4-yl)-3H-imidazo[4,5-c]pyridin-2-yl)-1H-pyrazolo[4,3-b]pyridine]",> 10,2.47,–,> 10,22.6,10.3
"c1ccc(COc2cncc(-c3ccc4[nH]nc(-c5nc6c(-c7ccncc7)cncc6[nH]5)c4n3)c2)cc1 [Compound 554, 5-(5-(Benzyloxy)pyridin-3-yl)-3-(7-(pyridin-4-yl)-3H-imidazo[4,5-c]pyridin-2-yl)-1H-pyrazolo[4,3-b]pyridine]",> 10,1.03,–,> 10,50.3,0
